Assay results: PMC6321124, “Hydrophilic Linear Peptide with Histidine and Lysine Residues as a Key Factor Affecting Antifungal Activity” (International Journal of Molecular Sciences, 2018)

System: drug-resistant C. albicans strains (CCARM 14001, 14004, 14007, and 14020)
Format: cell-based
Details: at 256 µM; CCARM 14001, 14004, 14007, 14020; data not shown

OC(Cn1cncn1)(Cn1cncn1)c1ccc(F)cc1F [fluconazole]
antifungal activity against drug-resistant C. albicans strains: inactive
